Experimental data taken from PMC10617569, “The Ustilago maydis AA10 LPMO is active on fungal cell wall chitin” (Applied and Environmental Microbiology, 2023).

Target: T1, UmAA10_cd (Mycosarcoma maydis, UniProt A0A0D1CHL0)
T1 construct: gene UMAG_05439; catalytic domain only; C-terminal extension removed between Gly203 and Gly204; C-terminal (His)6-tag; made in Pichia pastoris SuperMan5; copper loaded
Assay: Amplex red / HRP assay of H2O2 production, absorbance at […] nm
Type: biochemical
Conditions: reductant of the LPMO oxidase reaction, 50 µM ascorbic acid with O2; 1 µM enzyme; sodium phosphate 50 mM pH 7.0; 23°C

T1 sequence (A0A0D1CHL0 33-203): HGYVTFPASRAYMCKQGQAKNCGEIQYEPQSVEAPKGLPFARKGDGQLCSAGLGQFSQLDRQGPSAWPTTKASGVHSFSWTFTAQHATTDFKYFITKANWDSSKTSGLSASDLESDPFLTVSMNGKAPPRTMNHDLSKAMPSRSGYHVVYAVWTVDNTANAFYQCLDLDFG

O=C1O[C@H]([C@@H](O)CO)C(O)=C1O [ascorbic acid]
Amplex red / HRP assay of H2O2 production, absorbance at 575 nm: Using ascorbic acid (AscA) as a reductant, we found that UmAA10_cd produces H2O2
